Test results taken from the supplement of paper PMC10307832.

What was measured:
Assay in all cases: relative viability (nuclei count vs DMSO), 5 days (fraction); higher = more cells survive
Alpelisib + Foretinib = compound: Cc1nc(NC(=O)N2CCC[C@H]2C(N)=O)sc1-c1ccnc(C(C)(C)C(F)(F)F)c1 [Alpelisib] + COc1cc2c(Oc3ccc(NC(=O)C4(C(=O)Nc5ccc(F)cc5)CC4)cc3F)ccnc2cc1OCCCN1CCOCC1 [Foretinib] (partner 0.25 µM)
Summary of the method: (§1)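 Relative viability is defined as nuclei in treated wells over nuclei in vehicle wells. Duplicate plates were run and medians reported. Lung cancer cell lines in 1536-well plates were dosed by pin tool one day after seeding, with one drug or with a fixed anchor-drug dose plus five library-drug doses (not always all listed) in √10 steps, and nuclei were counted after 5 days.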

Alpelisib + Lapatinib = compound: Cc1nc(NC(=O)N2CCC[C@H]2C(N)=O)sc1-c1ccnc(C(C)(C)C(F)(F)F)c1 [Alpelisib] + CS(=O)(=O)CCNCc1ccc(-c2ccc3ncnc(Nc4ccc(OCc5cccc(F)c5)c(Cl)c4)c3c2)o1 [Lapatinib] (partner 2 µM)
Summary of the method: as §1

OSI-027 + Pictilisib = compound: COc1cccc2cc(-c3nc([C@H]4CC[C@H](C(=O)O)CC4)n4ncnc(N)c34)[nH]c12 [OSI-027] + CS(=O)(=O)N1CCN(Cc2cc3nc(-c4cccc5[nH]ncc45)nc(N4CCOCC4)c3s2)CC1 [Pictilisib] (partner 1 µM)
Summary of the method: as §1

Vemurafenib + Lapatinib = compound: CCCS(=O)(=O)Nc1ccc(F)c(C(=O)c2c[nH]c3ncc(-c4ccc(Cl)cc4)cc23)c1F [Vemurafenib] + CS(=O)(=O)CCNCc1ccc(-c2ccc3ncnc(Nc4ccc(OCc5cccc(F)c5)c(Cl)c4)c3c2)o1 [Lapatinib] (partner 2 µM)
Summary of the method: as §1

Cell Line	relative viability (Alpelisib + Foretinib; first compound 0.04 µM)	relative viability (Alpelisib + Foretinib; first compound 0.1265 µM)	relative viability (Alpelisib + Foretinib; first compound 0.4 µM)	relative viability (Alpelisib + Foretinib; first compound 1.265 µM)	relative viability (Alpelisib + Foretinib; first compound 4 µM)	relative viability (Alpelisib + Lapatinib; first compound 0.04 µM)	relative viability (Alpelisib + Lapatinib; first compound 0.1265 µM)	relative viability (Alpelisib + Lapatinib; first compound 0.4 µM)	relative viability (Alpelisib + Lapatinib; first compound 1.265 µM)	relative viability (Alpelisib + Lapatinib; first compound 4 µM)	relative viability (OSI-027 + Pictilisib; first compound 0.01 µM)	relative viability (OSI-027 + Pictilisib; first compound 0.03162 µM)	relative viability (OSI-027 + Pictilisib; first compound 0.1 µM)	relative viability (OSI-027 + Pictilisib; first compound 0.3162 µM)	relative viability (OSI-027 + Pictilisib; first compound 1 µM)	relative viability (Vemurafenib + Lapatinib; first compound 0.03162 µM)	relative viability (Vemurafenib + Lapatinib; first compound 0.3162 µM)	relative viability (Vemurafenib + Lapatinib; first compound 1 µM)	relative viability (Vemurafenib + Lapatinib; first compound 0.1 µM)
NCI-H1993	0.737	0.697	0.771	0.544	0.55	0.775	0.676	0.913	0.774	0.711	0.808	0.906	0.86	0.798	0.691	0.843	0.8	0.793	–
SW 1573	0.854	0.713	0.823	0.696	0.724	1.06	1.06	1.06	1.09	0.873	0.466	0.436	0.458	0.357	0.205	1.01	1.02	0.978	0.916
NCI-H2085	0.93	0.845	1.05	1.07	0.833	0.742	0.624	0.839	0.635	0.623	0.436	0.367	0.483	0.33	0.323	0.729	0.766	0.695	0.778
EPLC-272H	0.723	0.674	0.754	0.376	0.422	0.859	0.842	0.805	0.7	0.525	0.287	0.308	0.296	0.316	0.215	0.913	0.423	0.939	1
HARA	0.914	0.888	0.879	0.682	0.533	0.747	0.699	0.46	0.305	0.209	0.334	0.402	0.397	0.242	0.258	0.745	0.782	0.625	–
LU99A	0.746	0.832	0.722	0.661	0.503	0.873	0.917	1.02	0.666	0.56	0.315	0.294	0.259	0.18	0.189	0.878	1.03	0.916	0.985
NCI-H2087	0.903	1.07	1.31	0.814	0.614	1.02	0.978	1.26	0.703	0.97	0.794	0.787	0.686	0.523	0.329	0.761	–	0.967	0.981
EBC-1	0.101	0.0979	0.0957	0.108	0.114	0.21	0.184	0.211	0.238	0.232	0.344	0.359	0.299	0.216	0.238	0.201	0.245	0.261	0.214
NCI-H1734	0.749	–	0.786	0.486	0.356	1.09	0.989	1.11	0.771	0.373	0.455	0.45	0.491	0.337	0.264	0.872	0.903	0.993	1.04
NCI-H2170	0.978	0.914	1.12	0.922	0.622	0.269	0.273	0.239	0.248	0.269	0.284	0.295	0.245	0.266	0.258	0.277	0.266	0.267	0.244
PC-3 [JPC-3]	1.08	1	1.07	0.987	0.971	0.438	0.555	0.404	0.424	0.394	0.68	0.675	0.697	0.62	0.521	0.464	0.626	0.445	–
ABC-1	1.28	0.876	0.878	0.611	0.78	0.943	0.988	1.17	0.706	0.717	0.627	0.653	0.632	0.445	0.319	1.19	1.35	0.973	0.991
NCI-H1651	0.683	0.853	0.791	0.571	0.741	0.773	0.803	0.943	0.646	0.618	0.538	–	0.504	0.464	0.282	0.853	0.756	0.824	0.772
NCI-H1563	0.861	0.95	0.909	0.713	0.748	0.873	0.941	1.03	0.857	0.868	0.619	0.625	0.604	0.631	0.673	0.842	0.84	0.961	0.886
NCI-H460	0.998	1.02	1.08	0.929	0.795	1.02	0.948	1.03	0.662	0.439	0.274	0.416	0.295	0.314	0.211	0.929	0.82	0.926	1.08
NCI-H2228	0.82	0.927	0.701	0.613	0.404	1.02	0.788	1.07	0.794	0.486	0.412	0.281	0.474	–	0.249	1.11	1.21	1.06	1.09
LOU-NH91	0.933	0.853	0.81	0.738	0.754	0.767	0.597	0.632	0.511	0.522	0.544	0.555	0.489	0.472	0.447	0.683	–	0.781	0.78

Cell Line	relative viability (Alpelisib + Foretinib; first compound 0.04 µM)	relative viability (Alpelisib + Foretinib; first compound 0.1265 µM)	relative viability (Alpelisib + Foretinib; first compound 0.4 µM)	relative viability (Alpelisib + Foretinib; first compound 1.265 µM)	relative viability (Alpelisib + Foretinib; first compound 4 µM)	relative viability (Alpelisib + Lapatinib; first compound 0.04 µM)	relative viability (Alpelisib + Lapatinib; first compound 0.1265 µM)	relative viability (Alpelisib + Lapatinib; first compound 0.4 µM)	relative viability (Alpelisib + Lapatinib; first compound 1.265 µM)	relative viability (Alpelisib + Lapatinib; first compound 4 µM)	relative viability (OSI-027 + Pictilisib; first compound 0.01 µM)	relative viability (OSI-027 + Pictilisib; first compound 0.03162 µM)	relative viability (OSI-027 + Pictilisib; first compound 0.1 µM)	relative viability (OSI-027 + Pictilisib; first compound 0.3162 µM)	relative viability (OSI-027 + Pictilisib; first compound 1 µM)	relative viability (Vemurafenib + Lapatinib; first compound 0.03162 µM)	relative viability (Vemurafenib + Lapatinib; first compound 0.3162 µM)	relative viability (Vemurafenib + Lapatinib; first compound 1 µM)	relative viability (Vemurafenib + Lapatinib; first compound 0.1 µM)
RERF-LC-KJ	0.779	0.773	0.893	0.716	0.696	0.795	0.773	0.867	0.64	0.735	0.508	0.542	0.492	0.393	0.344	0.782	0.799	0.891	0.903
EKVX	0.519	0.726	0.66	0.67	0.73	0.195	0.34	0.184	0.174	0.175	0.456	0.384	0.368	0.302	0.177	0.189	0.253	0.208	–
NCI-H1395	0.889	1.04	1.01	0.897	0.988	0.88	0.909	1.15	0.75	0.921	0.559	0.705	0.514	0.458	0.554	0.891	–	1.19	0.95
CAL-12T	1.08	1.24	1.14	1.06	1.07	0.678	–	0.658	–	0.496	0.401	0.394	0.315	0.299	0.294	0.63	–	0.618	–
201T	1.11	1.06	1.29	0.841	0.71	1.02	0.988	1.02	1.01	0.945	0.688	0.683	0.667	0.553	0.541	0.965	1.02	1.04	1.02
SK-LU-1	0.831	0.796	0.854	0.453	0.681	1.07	0.707	0.858	0.767	0.704	0.529	0.462	0.355	0.272	0.287	0.777	–	0.803	0.791
LC-2-ad	0.863	0.908	0.966	0.601	0.576	0.958	1.01	0.975	0.645	0.542	0.427	0.373	0.501	0.474	0.221	0.881	0.778	0.866	0.928
NCI-H1793	0.733	0.666	0.77	0.402	0.42	0.647	0.642	0.637	0.513	0.613	0.421	0.329	0.276	0.222	0.179	0.442	0.645	0.872	–
Calu-6	0.926	0.842	0.931	0.871	0.617	1.1	1.09	1.12	0.996	0.952	0.94	0.762	0.655	0.544	0.319	1.02	1.01	0.924	1.06
NCI-H1944	0.786	0.96	0.881	0.581	0.43	0.815	1.04	0.763	0.621	0.451	0.369	0.349	0.32	0.287	0.247	0.818	0.725	0.789	0.815
NCI-H650	1.03	0.988	1.01	0.839	0.822	0.84	0.538	0.876	0.683	0.869	0.882	0.745	0.702	0.452	0.345	0.838	0.313	0.681	1.15
SK-MES-1	0.799	0.864	0.904	0.809	0.525	0.454	0.463	0.483	0.409	0.37	0.323	0.362	0.333	0.278	0.252	0.427	0.493	0.486	0.477
NCI-H2347	0.777	0.98	0.88	0.647	0.701	0.991	0.989	1.33	0.873	0.83	0.559	0.589	0.411	0.324	0.313	0.794	0.628	0.637	1.02
PC-14	0.914	1.01	0.977	0.807	0.832	0.358	0.401	0.301	0.265	0.235	0.526	0.719	0.722	0.544	0.171	0.255	0.287	0.362	–
LXF-289	0.951	1	1.08	0.909	0.764	0.865	0.921	0.958	0.832	0.956	0.778	0.714	0.752	0.511	0.46	0.892	0.87	0.965	0.883
NCI-H596	0.769	0.677	0.731	0.457	0.431	0.98	1.02	0.825	0.54	0.413	0.41	0.435	0.361	0.317	0.311	1.04	0.874	1.07	1.03
NCI-H358	0.622	0.674	0.684	0.567	0.353	0.442	0.382	0.389	0.297	0.368	0.334	0.333	0.273	0.267	0.284	0.408	0.505	0.407	–
